Measured values: patent US20180057538A1, “POTENT AND HIGHLY SOLUBLE PEGYLATED COMPSTATIN PEPTIDES” (The Regents of the University of California, priority 2016, published 2018)
Read-outs that look alike come from different tables or passages of the source. Positions of bridges follow the written chain, without caps; N, C: chain ends. Primed or numbered codes have the meaning given here. PEG8′ = 8 PEG blocks attached at the backbone of the C-terminal amino acid

Tests used:
[1] = tested on: NHS-induced basal C5b-9n deposition by RPE cells; assay: Human RPE cell-based assay, anti-C5b-9n immunofluorescence of sub-RPE deposits; conditions: for reduction in NHS-induced basal C5b-9n deposition: 2 μM peptide, 10% NHS, 24 h, decellularized whole mounts, normalized to NHS-treated samples
Experimental: The in vitro model of drusen biogenesis was used according to Johnson et al. (Proceedings of the National Academy of Sciences of the United States of America 2011; 108(45):18277-82) and used in assessing the efficacy of compstatin peptides. Briefly, human fetal RPE cells within the second passage were grown on laminin-coated porous inserts (Millipore, Billerica, Mass., USA) in Miller medium supplemented with 5% fetal bovine serum (FBS, HyClone, Logan, Utah, USA) at 37° C. and 5% CO2 in a humidified incubator. After culturing for 2-3 months, cells were rinsed with PBS and treated with Miller medium containing either 5% FBS (negative control) or 10% NHS without or with the inhibitory peptides (2 μM). The choice of 2 μM dose for this assay was based on the intent to use double the IC50 concentration, which was determined to be ˜1 μM. All inhibitory peptides were pre-mixed with NHS on a rocker at room temperature for 30 min and then warmed to 37° C. prior to addition to RPE cell cultures for 24 h. […]
Immunolabeled RPE sections and decellularized culture inserts were imaged using a Leica SP5 confocal microscope. Single-plane images from multiple non-overlapping areas were acquired using a 63× objective, and C5b-9n (MAC) immunofluorescence signals were quantified using ImageJ (NIH), as described Gorham et al. (Experimental Eye Research 2013; 116:96-108). Briefly, the thresholding tool of ImageJ was used to analyze each color channel separately, with the upper threshold set to include C5b-9n-associated fluorescence and the lower threshold set to eliminate any background fluorescence. For statistical analysis, fluorescence intensity measurements of C5b-9n were averaged with respect to the number of RPE nuclei per image (for vibratome sections) or total image area (for decellularized whole-mount samples) and then expressed as a percentage of the corresponding fluorescence intensities from samples exposed to NHS in the absence of any inhibitory peptide (positive control). All data were obtained from multiple images (n≧9) and expressed as mean±SEM. […]

complement activation [2] = conditions: alternative pathway-mediated erythrocyte lysis assay; cited from earlier work
complement activation [3] = assay: Hemolytic assay (rabbit erythrocytes lysed by normal human serum in VBS-MgEGTA); type: cell-based; conditions: ligand concentration at 50% maximal inhibition, triplicate runs (N = 3)
Experimental: Rabbit erythrocytes (Complement Technology, Inc, Tyler, Tex., USA) were washed with PBS and then resuspended in a veronal-buffered saline solution containing 5 mM MgCl2 and 10 mM EGTA (VBS-MgEGTA). Two-fold serial dilutions of the compstatin analogs were performed in round-bottom 96-well plates and then further diluted in VBS-MgEGTA. Normal human serum (NHS; Complement Technology, Inc) diluted in VBS-MgEGTA was added to each well followed by incubation at ambient temperature for 15 minutes. Subsequently, 30 μL of rabbit erythrocytes at a concentration of 1.25×10^8 cells/mL were added to each well. Positive controls for lysis consisted of: (1) erythrocytes in deionized water and (2) erythrocytes in NHS diluted with VBS-MgEGTA. Negative controls for lysis consisted of: (1) erythrocytes in VBS-MgEGTA and (2) erythrocytes in NHS diluted in VBS-EDTA. Next, plates were incubated at 37° C. for 20 minutes and then ice cold VBS containing 50 mM EDTA was added to each well to quench hemolytic reactions. Plates were centrifuged at 1000×g for 5 minutes and the supernatant was diluted 1:1 with deionized water in flat-bottom 96-well plates. Absorbance was measured spectrophotometrically at 405 nm to quantify lysis.

[4] = Apparent solubility measurements in PBS pH 7.4; type: physicochemical; conditions: PBS pH 7.4, 5-10 mg/mL
Experimental: Compstatin analogs were dissolved in phosphate buffered saline (PBS) at pH 7.4 to concentrations of 10, 7.5, and 5 mg/mL. At each concentration point, the peptide solutions were vortexed for 30 seconds and then centrifuged at 13000×g for 5 minutes. The supernatant was collected and measured 5 times spectrophotometrically at 280 nm. Optical densities were converted into concentration according to Beer-Lambert law. An extinction coefficient of 11125 M^−1 cm^−1 was used for each compstatin analog since each peptide contains two tryptophan amino acids (tryptophan extinction coefficient being 5562.5 M^−1 cm^−1).

[5] = biological target: complement C3 in normal human serum (human, UniProt P01024 23-1663); assay: cell-based or functional assay
[6] = biological target: T1, purified C3c (Complement Technology) (UniProt P01024 23-667; P01024 749-954; P01024 1321-1663, limits assumed); assay: competitive microscale thermophoresis (Monolith NT.115); Peptide 2 titrated against Cy5-labeled Competition Peptide on purified C3c
T1 construct: domain: C3c; C3c is a multi-chain proteolytic fragment of C3; also called complement protein C3c
Experimental: (§1) The binding affinity of Peptide 2 was evaluated in a competitive microscale thermophoresis assay, using a Monolith NT.115 instrument (NanoTemper Technologies GmbH, Munich, Germany). Competition was performed against the Competition Peptide, labeled with Cy5 for signal detection. Two different 1:1 serial dilution series of Peptide 2 were performed in MST buffer (50 mM Tris-HCl, 150 mM NaCl, 10 mM MgCl₂, 0.05% Tween 20). The first dilution series started with a final concentration of 333 μM and ended in a final concentration of 40.69 nM, while the second dilution series started with a final concentration of 166.67 μM and ended in a final concentration of 20.35 nM. To each dilution series of Peptide 2, purified C3c (Complement Technology) and the Competition Peptide (unlabeled form) were dissolved to final concentrations of 117 nM (Peptide 2) and 50 nM (Competition Peptide). The resulting mixture was incubated for 15 minutes in the dark at room temperature. Following the incubation, the samples were loaded into hydrophilic capillary tubes and the thermophoretic response of the fluorescently labeled marker was measured. […]
(§2) The binding affinity of Peptide 2 to C3c was determined using the microscale thermophoresis assay described herein. […]

[7] = biological target: T1, purified C3c (Complement Technology); assay: competitive microscale thermophoresis: Peptide 2 titrated against C3c in the presence of the Cy5-labeled Competition Peptide, mean±SEM of 7 replicates
Experimental: The labeled form of the Competition Peptide was used. Thermophoretic data is plotted as mean±SEM from 7 replicate experiments, together with the fitted binding curve. The dotted lines in red indicate the 95% confidence interval of the fitted binding curve. The black dotted line represents the baseline thermophoretic response in the absence of binding. The inset table indicates the KD±SEM.
as §1, with “To each dilution series of Peptide 2, purified C3c (Complement Technology) and the Competition Peptide (unlabeled form) were dissolved to final concentrations of 117 nM (Peptide 2) and 50 nM (Competition Peptide). The resulting mixture was incubated for 15 minutes in the dark at room temperature.” left out
as §2

Sequence of complement C3 in normal human serum (P01024 23-1663 limits assumed): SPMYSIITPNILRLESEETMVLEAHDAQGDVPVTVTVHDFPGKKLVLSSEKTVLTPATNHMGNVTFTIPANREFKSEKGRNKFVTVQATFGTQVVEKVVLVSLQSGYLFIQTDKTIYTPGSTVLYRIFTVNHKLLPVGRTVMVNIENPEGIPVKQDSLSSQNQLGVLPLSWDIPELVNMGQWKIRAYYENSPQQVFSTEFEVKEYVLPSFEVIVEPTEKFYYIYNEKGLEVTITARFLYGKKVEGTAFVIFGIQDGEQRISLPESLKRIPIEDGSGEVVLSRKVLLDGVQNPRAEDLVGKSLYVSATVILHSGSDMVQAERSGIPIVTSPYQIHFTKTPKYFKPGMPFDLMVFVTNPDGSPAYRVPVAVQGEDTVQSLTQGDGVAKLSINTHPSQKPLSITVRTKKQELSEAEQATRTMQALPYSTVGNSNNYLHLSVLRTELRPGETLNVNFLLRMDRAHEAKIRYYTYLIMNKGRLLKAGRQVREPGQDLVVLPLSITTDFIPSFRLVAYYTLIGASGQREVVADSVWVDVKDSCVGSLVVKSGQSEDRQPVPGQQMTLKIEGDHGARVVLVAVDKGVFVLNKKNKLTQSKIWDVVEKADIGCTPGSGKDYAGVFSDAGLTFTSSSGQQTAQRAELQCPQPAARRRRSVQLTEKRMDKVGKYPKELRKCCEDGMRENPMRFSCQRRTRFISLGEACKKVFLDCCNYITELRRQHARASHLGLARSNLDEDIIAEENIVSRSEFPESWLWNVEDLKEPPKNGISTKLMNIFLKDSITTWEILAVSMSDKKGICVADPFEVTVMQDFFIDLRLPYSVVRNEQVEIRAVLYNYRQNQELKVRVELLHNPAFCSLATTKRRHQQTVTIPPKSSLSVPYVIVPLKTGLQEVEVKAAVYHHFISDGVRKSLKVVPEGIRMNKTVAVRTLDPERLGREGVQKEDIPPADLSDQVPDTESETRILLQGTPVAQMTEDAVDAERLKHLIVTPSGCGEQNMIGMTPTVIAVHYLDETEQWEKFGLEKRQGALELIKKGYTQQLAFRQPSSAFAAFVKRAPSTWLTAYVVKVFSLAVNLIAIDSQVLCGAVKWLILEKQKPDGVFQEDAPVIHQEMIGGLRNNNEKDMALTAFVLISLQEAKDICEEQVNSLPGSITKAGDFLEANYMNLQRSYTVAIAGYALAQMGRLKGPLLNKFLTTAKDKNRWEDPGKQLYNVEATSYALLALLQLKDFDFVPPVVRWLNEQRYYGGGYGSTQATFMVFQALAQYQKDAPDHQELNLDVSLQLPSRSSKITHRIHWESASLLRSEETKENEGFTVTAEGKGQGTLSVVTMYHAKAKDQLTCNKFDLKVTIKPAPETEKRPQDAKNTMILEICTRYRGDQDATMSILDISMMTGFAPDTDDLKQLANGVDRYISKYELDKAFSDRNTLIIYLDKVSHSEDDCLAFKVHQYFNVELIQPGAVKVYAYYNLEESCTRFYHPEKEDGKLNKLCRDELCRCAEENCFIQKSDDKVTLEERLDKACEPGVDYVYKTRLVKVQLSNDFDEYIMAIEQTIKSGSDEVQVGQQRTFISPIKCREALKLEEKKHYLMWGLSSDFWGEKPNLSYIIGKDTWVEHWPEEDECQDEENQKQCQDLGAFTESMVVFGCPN
T1 sequence (P01024 23-667 limits assumed, chain 1 of 3): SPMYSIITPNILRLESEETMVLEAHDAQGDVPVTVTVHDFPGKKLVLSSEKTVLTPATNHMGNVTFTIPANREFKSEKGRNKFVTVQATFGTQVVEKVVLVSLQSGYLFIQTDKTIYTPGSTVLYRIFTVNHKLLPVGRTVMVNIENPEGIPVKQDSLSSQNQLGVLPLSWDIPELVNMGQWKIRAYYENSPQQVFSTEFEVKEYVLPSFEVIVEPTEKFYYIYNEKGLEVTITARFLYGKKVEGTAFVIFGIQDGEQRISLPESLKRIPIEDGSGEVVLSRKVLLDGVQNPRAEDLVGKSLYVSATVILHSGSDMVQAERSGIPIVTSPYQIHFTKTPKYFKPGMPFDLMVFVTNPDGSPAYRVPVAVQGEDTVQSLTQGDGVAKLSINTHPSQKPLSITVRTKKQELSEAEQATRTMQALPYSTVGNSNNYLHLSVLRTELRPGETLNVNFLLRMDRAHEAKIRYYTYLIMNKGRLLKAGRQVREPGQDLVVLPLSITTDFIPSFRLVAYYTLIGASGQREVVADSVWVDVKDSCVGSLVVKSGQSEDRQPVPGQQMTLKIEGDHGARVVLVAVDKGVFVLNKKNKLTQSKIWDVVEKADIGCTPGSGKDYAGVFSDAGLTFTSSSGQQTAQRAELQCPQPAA
T1 sequence (P01024 749-954 limits assumed, chain 2 of 3): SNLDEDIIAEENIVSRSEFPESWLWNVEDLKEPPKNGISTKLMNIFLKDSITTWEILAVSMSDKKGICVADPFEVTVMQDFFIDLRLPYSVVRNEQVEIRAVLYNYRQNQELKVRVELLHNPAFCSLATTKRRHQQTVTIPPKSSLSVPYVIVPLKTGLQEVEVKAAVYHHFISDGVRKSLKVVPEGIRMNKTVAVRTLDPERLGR
T1 sequence (P01024 1321-1663 limits assumed, chain 3 of 3): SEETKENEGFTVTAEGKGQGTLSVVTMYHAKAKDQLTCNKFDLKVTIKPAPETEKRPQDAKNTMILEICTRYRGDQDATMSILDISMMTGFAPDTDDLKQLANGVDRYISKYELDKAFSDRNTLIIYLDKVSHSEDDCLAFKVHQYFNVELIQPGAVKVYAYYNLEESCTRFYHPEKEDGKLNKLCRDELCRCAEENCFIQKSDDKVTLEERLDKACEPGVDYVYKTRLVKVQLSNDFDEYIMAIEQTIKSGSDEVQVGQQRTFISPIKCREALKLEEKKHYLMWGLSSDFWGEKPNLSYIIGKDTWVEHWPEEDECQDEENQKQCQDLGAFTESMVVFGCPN

Molecule: Ac-RSI[CVWQDWGAHRC]T-NH2 (Ac-RSICVWQDWGAHRCT-NH2; disulfide 4-14) [Peptide 1, reference compound]
- reduction in NHS-induced basal C5b-9n deposition [1]: 50%

Molecule: CC[C@H](C)[C@H](N)C(=O)N[C@H]1CSSC[C@@H](C(=O)N[C@H](C(N)=O)[C@@H](C)O)NC(=O)[C@H](CCCN=C(N)N)NC(=O)[C@H](Cc2cnc[nH]2)NC(=O)[C@H](Cc2cnc[nH]2)NC(=O)CNC(=O)[C@H](Cc2c[nH]c3ccccc23)NC(=O)[C@H](CC(=O)O)NC(=O)[C@H](CCC(N)=O)NC(=O)[C@H](C(C)C)NC(=O)[C@H](C(C)C)NC1=O [compstatin, ICVVQDWGHHRCT]
- IC50 (complement activation [2]): ~12900 nM

Molecule: CC[C@H](C)[C@H](NC(=O)[C@H](CO)NC(=O)[C@H](CCCNC(=N)N)NC(C)=O)C(=O)N[C@H]1CSSC[C@@H](C(=O)N[C@H](C(=O)NCCOCCOCCOCCOCCOCCOCCOCCOCCC(N)=O)[C@@H](C)O)NC(=O)[C@H](CCCNC(=N)N)NC(=O)[C@H](Cc2c[nH]cn2)NC(=O)[C@H](C)NC(=O)CNC(=O)[C@H](Cc2c[nH]c3ccccc23)NC(=O)[C@H](CC(=O)O)NC(=O)[C@H](CCC(N)=O)NC(=O)[C@H](Cc2c[nH]c3ccccc23)NC(=O)[C@H](C(C)C)NC1=O [Peptide 2, Ac-RSI[CVWQDWGAHRC]T-PEG8-NH2]
- IC50 (complement activation [3]): 960 nM
- apparent solubility (comparison) [4]: significantly higher apparent solubility than the parent Peptide 1 and the Competition Peptide
- slope of correlation between calculated and observed concentrations ([4]; absorbance at 280 nm): 0.92
- reduction in NHS-induced basal C5b-9n deposition [1]: 80%
- inhibitory effect relative to parent Peptide 1 ([1]; formation of C5b-9-rich sub-RPE deposits): two-fold greater inhibitory effect

Molecule: Ac-RSICVWQDWGAHRCT-NH2 (disulfide 4-14) [Peptide 1, Ac-RSI[CVWQDWGAHRC]T-NH2]
- Mean IC50, hemolytic assay (rabbit erythrocytes, normal human serum, alternative pathway) [5]: 970 nM

B1: Competition Peptide, unlabeled, Ac-I[CVWQDWGAHRC]TAGK-NH2 (peptide)
peptide: Ac-ICVWQDWGAHRCTAGK-NH2
modifications: disulfide 2-12
SMILES: CC[C@H](C)[C@H](NC(C)=O)C(=O)N[C@H]1CSSC[C@@H](C(=O)N[C@H](C(=O)N[C@@H](C)C(=O)NCC(=O)N[C@@H](CCCCN)C(N)=O)[C@@H](C)O)NC(=O)[C@H](CCCNC(=N)N)NC(=O)[C@H](Cc2c[nH]cn2)NC(=O)[C@H](C)NC(=O)CNC(=O)[C@H](Cc2c[nH]c3ccccc23)NC(=O)[C@H](CC(=O)O)NC(=O)[C@H](CCC(N)=O)NC(=O)[C@H](Cc2c[nH]c3ccccc23)NC(=O)[C@H](C(C)C)NC1=O
- Mean IC50, hemolytic assay (rabbit erythrocytes, normal human serum, alternative pathway) [5]: 1400 nM

B2: Peptide 2, Ac-RSI[CVWQDWGAHRC]T-PEG8-NH2 (peptide)
peptide: Ac-RSICVWQDWGAHRCT-{PEG8′-NH2}
modifications: disulfide 4-14
notes: Synthetic compstatin analog with an Arg-Ser N-terminal extension and a C-terminal PEG8; molecular mass 2279; also called PEGylated Peptide 2; PEGylated compstatin peptide
- Mean IC50, hemolytic assay (rabbit erythrocytes, normal human serum, alternative pathway) [5]: 960 nM
- Kd [6]: 690 nM
- IC50 (read off the curve) [7]: ~700 nM
